# Measured values published in publication PMC4811302, “Human β-defensin 3 contains an oncolytic motif that binds PI(4,5)P2 to mediate tumour cell permeabilisation” (Oncotarget, 2015).
# Where no end group is shown, it is not given here.
# Key:
# [1] = tested on: U937 cells; experiment: Lipid inhibition of HBD-3 mediated PI uptake; type: cell-based, human; details: 15 μM HBD-3 pre-incubated with 50 μM synthetic lipid, flow cytometry, three independent experiments
# Procedure: (§1) Cells suspended at 1×10^6 cells/mL in serum-free medium containing 0.1% (w/v) bovine serum albumin (BSA) (Sigma-Aldrich) were treated with HBD-3 at 37°C for 30 min. Nucleic acid stain propidium iodide (PI) was then added to a final concentration of 1 μg/mL and cells subjected to flow cytometry analysis using BD FACSCanto II Flow Cytometer and BD FACSDiva Software v6.1.1 (BD Biosciences, San Jose, CA). For each flow cytometry reading, 10,000 cells, gated appropriately based on forward scattering and side scattering, were recorded. The resultant data were processed using FlowJo software (Tree Star, San Carlos, CA) to determine PI-positivity, which reflects the level of membrane permeabilisation. For lipid inhibition assays, 15 μM HBD-3 was pre-incubated with 50 μM synthetic lipids, including L-α-phosphatidic acid (PA), L-α-phosphatidylcholine (PC), L-α-phosphatidylethanolamine (PE), L-α-phosphatidylserine (PS), L-α-phosphatidylinositol-4-phosphate (PI(4)P), L-α-phosphatidylinositol-3,5-bisphosphate (PI(3,5)P2), L-α-phosphatidylinositol-4,5-bisphosphate (PI(4,5)P2) and L-α-phosphatidylinositol-3,4,5-trisphosphate (PI(3,4,5)P)3. All lipids were sourced from Avanti Polar Lipids, Alabaster, AL. For neomycin inhibition experiments, U937 cells at 1×10^6 cells/mL were pre-treated with 10 mM neomycin (Sigma-Aldrich), followed by three centrifugal washes with phosphate buffered saline (PBS) at 500 g for 5 min.
# [2] = tested on: U937 and HeLa cells; experiment: Cell viability assay, mutants compared to wild-type; type: cell-based, human; details: cell viability assays, 48 h
# Procedure: (§2) Different concentrations of HBD-3 were added to cells seeded in 96-well plates in appropriate complete medium. Initial plating cell density was pre-optimised to avoid confluence at endpoint. After 48 h, cell viability was determined using 3-(4,5-dimethylthiazol-2-yl)-2,5-diphenyltetrazolium bromide (MTT) (Sigma-Aldrich, MO) for adherent cells (HeLa, PC3, HUVEC, AHDF, CASMC) or 3-(4,5-dimethylthiazol-2-yl)-5-(3-carboxymethoxyphenyl)-2-(4-sulfophenyl)-2H-tetrazolium (MTS) (Promega, Madison, WI) coupled with phenzine methosulfate (PMS) (Promega) for suspension cells (U937, HL-60, Jurkat) prior to absorbance measurement at 570 nm and […], respectively. Absorbance readings of untreated control wells was designated as 100% cell viability.
# [3] = ATP-encapsulated liposome leakage assay, PC:PI(4,5)P2; details: 15 μM defensin
# Procedure: Liposomes were generated as described previously using natural PI(4,5)P2 (porcine brain, in chloroform:methanol:water at 20:9:1 molar ratio) and PC (chicken egg, in chloroform) purchased from Avanti Polar Lipids. PC only or PC:PI(4,5)P2 (95:5 molar ratio) solutions were dried under a stream of nitrogen gas followed by overnight vacuum-drying. The lipid films were rehydrated to a final concentration of 5 mg/mL in 20 mM HEPES (pH 7.2) containing 5 mg/mL adenosine-5-triphosphate disodium salt (ATP; Sigma-Aldrich) at 37°C for 1 h. After three subsequent cycles of freezing (liquid nitrogen) and thawing (25°C), multilamellar liposomes were extruded 15–20 times through a mini-extruder (Avanti Polar Lipids). Free ATP was removed by three centrifugal washes with 20 mM HEPES at 16,500 g prior to the ATP release assay. Liposomes treated with 1% Triton X-100 were included as positive control and assigned as total lysis, whereas HEPES only control served as background reading. The level of ATP release at a particular time point was determined by quotient of the corrected reading (after subtracting background) of the sample at that time point and corrected reading of total lysis, as per the following equation: % Lysist=Samplet−HEPESt/Triton X−HEPES×100
# [4] = Protein-lipid overlay assay, PIP strip; type: binding; details: 1 μg/mL protein, immunodetection, densitometry
# Procedure: Protein-lipid overlay assays using Membrane strip™ or PIP strip™ (Echelon Biosciences, Salt Lake City, UT) were performed using 1 μg/mL proteins as described previously. Lipid binding was immunodetected using a combination of rabbit anti-HBD-3 IgG (50 μg/mL) and horseradish peroxidase-conjugated donkey-anti-rabbit Ig (10 μg/mL) antibodies. Chemiluminescence signal intensity was quantitated by densitometry analysis using ImageJ (National Institutes of Health, Bethesda, MD; http://imagej.nih.gov/ij/).
# [5] = tested on: tumour cells; details: in vitro; ref [11]; cited from earlier work
# Source text: The underlying mechanism was described to involve the entry of NaD1 into the cell followed by binding to PI(4,5)P2, leading to membrane permeabilisation, membrane blebbing and eventually to cell lysis.
# [6] = tested on: U937 cells; experiment: Tetrazolium-coupled cell viability assay, HBD-3 and mutants, U937; type: cell-based, human; details: 48 h
# Procedure: as §2
# [7] = tested on: HeLa cells; experiment: Tetrazolium-coupled cell viability assay, HBD-3 and mutants, HeLa; type: cell-based, human; details: 48 h
# Procedure: as §2
# [8] = tested on: plasma membrane PI(4,5)P2 of U937 cells; experiment: Anti-PI(4,5)P2 antibody blocking assay; type: cell-based, human; details: 15 μM defensins 30 min or 10 mM neomycin 3 h; cells fixed, saponin-lysed, FITC-conjugated anti-PI(4,5)P2 IgM, flow cytometry
# Procedure: U937 cells at 1×10^6 cells/mL were treated with 10 mM neomycin for 3 h and/or 15 μM defensins for 30 min in serum-free RPMI 1640 medium containing 0.1% BSA, followed by 20 min fixation with 2% (v/w) paraformaldehyde (Sigma-Aldrich), 10 min lysis with 0.5% (w/v) saponin (Sigma-Aldrich), and then 30 min blocking with 3% (w/v) BSA. Three 5-min centrifugal washes with PBS at 500 g were also included between steps. FITC-conjugated mouse anti-PI(4,5)P2 IgM (Echelon Biosciences) or IgM control (GeneTex, Irvine, CA) was subsequently used at 10 μg/mL for 30 min prior to flow cytometry analysis.
# [9] = tested on: U937 cells; experiment: Neomycin inhibition of membrane permeabilisation (PI uptake); type: cell-based, human; details: cells pre-treated with 10 mM neomycin, PI uptake by flow cytometry; effect overcome at higher HBD-3 concentrations
# Procedure: as §1, with “For neomycin inhibition experiments, U937 cells at 1×10^6 cells/mL were pre-treated with 10 mM neomycin (Sigma-Aldrich), followed by three centrifugal washes with phosphate buffered saline (PBS) at 500 g for 5 min.” left out
substance,measurement,setting,value
"L-α-phosphatidylinositol-3,5-bisphosphate [PI(3,5)P2]",reduced PI-positivity (inhibition of HBD-3 mediated PI uptake by lipid),[1],did not show any significant inhibition
"HBD-3(K32A): alanine mutant of HBD-3 at K32, recombinantly expressed in P. pastoris (GIINTLQKYYCRVRGGRCAVLSCLPKEEQIGACSTRGRKCCRRKK; ends and bridges not checked; cysteine pairing not given here; UniProt P81534 23-67, looked up, variant K32A)",tumour cell cytotoxicity compared to wild-type HBD-3,[2],reduced tumour cell cytotoxicity
same,ability to induce ATP release from ATP-encapsulated liposomes compared to wild-type HBD-3,[3],impaired
same,binding to PA on PIP strip compared to wild-type HBD-3,[4],substantially retained
same,binding to phosphoinositides/lipids on PIP strip,[4],much lower levels
"Nicotiana alata defensin 1 (RECKTESNTFPGICITKPPCRKACISEKFTDGHCSKILRRCLCTKPC; UniProt Q8GTM0 26-72, looked up) [NaD1]",concentrations selectively killing a broad spectrum of tumour cells,[5],low micromolar concentrations
"L-α-phosphatidylinositol-3,4,5-trisphosphate [PI(3,4,5)P3]",reduced PI-positivity (inhibition of HBD-3 mediated PI uptake by lipid),[1],100%
"HBD-3(K39A): alanine mutant of HBD-3 at K39, recombinantly expressed in P. pastoris (GIINTLQKYYCRVRGGRCAVLSCLPKEEQIGKCSTRGRACCRRKK; UniProt P81534 23-67, looked up, variant K39A)",fold higher IC50 compared to wild-type HBD-3,[6],three-fold
same,fold higher IC50 compared to wild-type HBD-3,[7],two-fold
same,"blocking of anti-PI(4,5)P2 antibody binding (overall fluorescence intensity vs untreated control)",[8],essentially the same as that of the untreated control
same,tumour cell cytotoxicity compared to wild-type HBD-3,[2],reduced tumour cell cytotoxicity
same,ability to induce ATP release from ATP-encapsulated liposomes compared to wild-type HBD-3,[3],impaired
same,binding to PA on PIP strip compared to wild-type HBD-3,[4],maintaining binding to PA
same,binding to phosphoinositides/lipids on PIP strip,[4],pronounced loss of PIP binding
L-α-phosphatidylcholine [PC],reduced PI-positivity (inhibition of HBD-3 mediated PI uptake by lipid),[1],did not show any significant inhibition
L-α-phosphatidylethanolamine [PE],reduced PI-positivity (inhibition of HBD-3 mediated PI uptake by lipid),[1],did not show any significant inhibition
L-α-phosphatidylinositol-4-phosphate [PI(4)P],reduced PI-positivity (inhibition of HBD-3 mediated PI uptake by lipid),[1],did not show any significant inhibition
"LL-37: another CAP that exhibits non-PI(4,5)P2-dependent detergent-like and/or pore-forming membrane disruption (LLGDFFRKSKEKIGKEFKRIVQRIKDFLRNLVPRTES; Antibacterial peptide LL-37; UniProt P49913 134-170, looked up) [reference compound]",susceptibility of neomycin pre-incubated cells to permeabilisation compared to untreated control,[9],not
"L-α-phosphatidylinositol-4,5-bisphosphate [PI(4,5)P2]",reduced PI-positivity (inhibition of HBD-3 mediated PI uptake by lipid),[1],~50%
L-α-phosphatidic acid [PA],reduced PI-positivity (inhibition of HBD-3 mediated PI uptake by lipid),[1],enhanced permeabilisation
L-α-phosphatidylserine [PS],reduced PI-positivity (inhibition of HBD-3 mediated PI uptake by lipid),[1],~15%
